Measured values taken from patent US20120083522A1, “MODULATION OF INFLAMMATORY RESPONSES BY FACTOR XI” (Isis Pharmaceuitcals, inc., priority 2009, published 2012).
In the oligonucleotide strings, read from the 5' end, every base follows the letter of its sugar. An asterisk marks phosphorothioate; unmarked linkages are phosphodiester. Other units and linkages are bracketed, terminal groups are in braces. A string of capitals states the bases alone. e = 2'-O-(2-methoxyethyl) (MOE); [5mC] = 5-methylcytosine; d = 2'-deoxy (DNA)

Legend:
[1] = Cynomolgus monkeys: body and organ weights (Example 29); format: in vivo
Procedure, shortened: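 Monkeys (2 male, 3 female per group) dosed s.c. with antisense oligonucleotide, escalating 5→10→25 mg/kg two to three times weekly over 12 weeks (one chronic arm capped at 10 mg/kg); PBS controls. Body weights taken weekly; liver, kidney and spleen weighed after euthanasia on day 85.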

Factor XI protein = test: Cynomolgus monkeys: plasma Factor XI protein ELISA (Example 29); format: in vivo
Procedure, shortened: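 Monkeys received subcutaneous escalating doses (5, 10, then 25 mg/kg, two or three times weekly over 12 weeks) or a lower chronic regimen capped at 10 mg/kg. Plasma was sampled weekly and assayed at 1:50 by sandwich ELISA with o-phenylenediamine read at 490 nm. Values are % reduction versus PBS controls.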

Factor XI mRNA = test: Colitis Study F: Factor XI mRNA in liver and colon; format: in vivo, Swiss Webb mice; conditions: DSS-treated mice, 50 mg/kg, percent of the PBS treated control
Method: (§1) In a first group of 8 Swiss Webb mice, 50 mg/kg of ISIS 404071 was injected subcutaneously twice a week for 3 weeks. Two control groups of 8 mice each were injected with PBS twice a week for 3 weeks. After the oligonucleotide treatment, 4% DSS in water was administered ad libitum for 7 days to the experimental group and one PBS control group. Mice were sacrificed at the end of the study on day 7 after DSS was administered.
The effect of antisense inhibition in the liver and colon levels of Factor XI mRNA after treatment by ISIS 404071 is presented in Table 48 (as a percent of the PBS treated control).

[2] = test system: DSS-induced colitis model; test: Colitis Study F: body weight, stool scores, colon length and weight; format: in vivo, Swiss Webb mice
Method: as §1
Mice in all groups were weighed at day 0 and daily for 7 days after administration of DSS. Mice were sacrificed at the end of the study on day 7 after DSS was administered and their colon lengths and weight were measured as shown in Table 45.

[3] = test system: soluble CD40 ligand (CD40L); test: Colitis Study D: CD40L levels; format: in vivo, Swiss Webb mice; conditions: for CD40L levels in colon: DSS-treated mice
Method: In a first group of 8 Swiss Webb mice, 10 mg/kg of ISIS 404071 was injected subcutaneously twice a week for 3 weeks. In a second group of 8 Swiss Webb mice, 20 mg/kg of ISIS 404057 was subcutaneously injected twice a week for 3 weeks. In a third control group of 8 Swiss Webb mice, 40 mg/kg of ISISI 404057 was injected subcutaneously twice a week for 3 weeks. Two control groups of 8 mice each were injected with PBS twice a week for 3 weeks. After the oligonucleotide treatment, 4% DSS in water was administered ad libitum for 7 days to all the experimental groups and one PBS control group.
Plasma levels of soluble CD40 ligand (CD40L) are known to be elevated in cases of inflammatory bowel disease (Ludwiczek, O. et al., Int. J. Colorectal Disease. 2003. 18: 142-147) and may be considered a marker of intestinal inflammation. […]

[4] = chronic, lower dose regimen (*) 5 then 10 mg/kg s.c., day 8
[5] = chronic, lower dose regimen (*) 5 then 10 mg/kg s.c., day 15
[6] = chronic, lower dose regimen (*) 5 then 10 mg/kg s.c., day 22
[7] = chronic, lower dose regimen (*) 5 then 10 mg/kg s.c., day 29
[8] = chronic, lower dose regimen (*) 5 then 10 mg/kg s.c., day 36
[9] = chronic, lower dose regimen (*) 5 then 10 mg/kg s.c., day 43
[10] = chronic, lower dose regimen (*) 5 then 10 mg/kg s.c., day 50
[11] = escalating doses 5, 10, 25 mg/kg s.c., day 8
[12] = escalating doses 5, 10, 25 mg/kg s.c., day 15
[13] = escalating doses 5, 10, 25 mg/kg s.c., day 22
[14] = escalating doses 5, 10, 25 mg/kg s.c., day 29
[15] = escalating doses 5, 10, 25 mg/kg s.c., day 36
[16] = escalating doses 5, 10, 25 mg/kg s.c., day 43
[17] = escalating doses 5, 10, 25 mg/kg s.c., day 50
[18] = escalating doses 5, 10, 25 mg/kg s.c., day 57
[19] = escalating doses 5, 10, 25 mg/kg s.c., day 64
[20] = escalating doses 5, 10, 25 mg/kg s.c., day 71
[21] = escalating doses 5, 10, 25 mg/kg s.c., day 78
[22] = DSS-treated mice, 50 mg/kg, day 7

## ISIS 416850: gapmer of Table 8 (antisense eT*eG*e[5mC]*eA*e[5mC]*dA*dG*dT*dT*dT*d[5mC]*dT*dG*dG*d[5mC]*eA*eG*eG*e[5mC]*e[5mC])
[1]; chronic, lower dose regimen (*) 5 then 10 mg/kg s.c., day 1
  Body weight: 2665 g
[1]; [4]
  Body weight: 2579 g
[1]; [5]
  Body weight: 2607 g
[1]; [6]
  Body weight: 2661 g
[1]; [7]
  Body weight: 2667 g
[1]; [8]
  Body weight: 2656 g
[1]; [9]
  Body weight: 2670 g
[1]; [10]
  Body weight: 2679 g
[1]; escalating doses 5, 10, 25 mg/kg s.c., day 1
  Body weight: 2572 g
[1]; [11]
  Body weight: 2430 g
[1]; [12]
  Body weight: 2474 g
[1]; [13]
  Body weight: 2514 g
[1]; [14]
  Body weight: 2515 g
[1]; [15]
  Body weight: 2545 g
[1]; [16]
  Body weight: 2544 g
[1]; [17]
  Body weight: 2613 g
[1]; [18]
  Body weight: 2629 g
[1]; [19]
  Body weight: 2642 g
[1]; [20]
  Body weight: 2769 g
[1]; [21]
  Body weight: 2660 g
Factor XI protein; Example 29
  Factor XI protein levels (in words): time-dependent decrease in protein levels
Factor XI protein; [4]
  Inhibition of Factor XI protein relative to the PBS control: 6%
Factor XI protein; [5]
  Inhibition of Factor XI protein relative to the PBS control: 13%
Factor XI protein; [6]
  Inhibition of Factor XI protein relative to the PBS control: 12%
Factor XI protein; [7]
  Inhibition of Factor XI protein relative to the PBS control: 20%
Factor XI protein; [8]
  Inhibition of Factor XI protein relative to the PBS control: 22%
Factor XI protein; [9]
  Inhibition of Factor XI protein relative to the PBS control: 24%
Factor XI protein; [10]
  Inhibition of Factor XI protein relative to the PBS control: 30%
Factor XI protein; chronic, lower dose regimen (*) 5 then 10 mg/kg s.c., day 57
  Inhibition of Factor XI protein relative to the PBS control: 34%
Factor XI protein; chronic, lower dose regimen (*) 5 then 10 mg/kg s.c., day 64
  Inhibition of Factor XI protein relative to the PBS control: 37%
Factor XI protein; chronic, lower dose regimen (*) 5 then 10 mg/kg s.c., day 71
  Inhibition of Factor XI protein relative to the PBS control: 41%
Factor XI protein; chronic, lower dose regimen (*) 5 then 10 mg/kg s.c., day 78
  Inhibition of Factor XI protein relative to the PBS control: 42%
Factor XI protein; chronic, lower dose regimen (*) 5 then 10 mg/kg s.c., day 85
  Inhibition of Factor XI protein relative to the PBS control: 34%
Factor XI protein; chronic, lower dose regimen (*) 5 then 10 mg/kg s.c., day −5 (before treatment)
  Inhibition of Factor XI protein relative to the PBS control: 1%
Factor XI protein; chronic, lower dose regimen (*) 5 then 10 mg/kg s.c., day −14 (before treatment)
  Inhibition of Factor XI protein relative to the PBS control: 0%
Factor XI protein; [11]
  Inhibition of Factor XI protein relative to the PBS control: 8%
Factor XI protein; [12]
  Inhibition of Factor XI protein relative to the PBS control: 4%
Factor XI protein; [13]
  Inhibition of Factor XI protein relative to the PBS control: 11%
Factor XI protein; [14]
  Inhibition of Factor XI protein relative to the PBS control: 15%
Factor XI protein; [15]
  Inhibition of Factor XI protein relative to the PBS control: 17%
Factor XI protein; [16]
  Inhibition of Factor XI protein relative to the PBS control: 23%
Factor XI protein; [17]
  Inhibition of Factor XI protein relative to the PBS control: 42%
Factor XI protein; [18]
  Inhibition of Factor XI protein relative to the PBS control: 49%
Factor XI protein; [19]
  Inhibition of Factor XI protein relative to the PBS control: 55%
Factor XI protein; [20]
  Inhibition of Factor XI protein relative to the PBS control: 57%
Factor XI protein; [21]
  Inhibition of Factor XI protein relative to the PBS control: 63%
Factor XI protein; escalating doses 5, 10, 25 mg/kg s.c., day 85
  Inhibition of Factor XI protein relative to the PBS control: 64%
Factor XI protein; escalating doses 5, 10, 25 mg/kg s.c., day −5 (before treatment)
  Inhibition of Factor XI protein relative to the PBS control: 0%
Factor XI protein; escalating doses 5, 10, 25 mg/kg s.c., day −14 (before treatment)
  Inhibition of Factor XI protein relative to the PBS control: 0%

## TGGTAATCCACTTTCAGAGG (eT*eG*eG*eT*eA*dA*dT*d[5mC]*d[5mC]*dA*d[5mC]*dT*dT*dT*d[5mC]*eA*eG*eA*eG*eG) [ISIS 404071, 5-10-5 MOE gapmer targeting murine Factor XI, target start site 869]
Factor XI mRNA
  Factor XI mRNA levels in the Colon: 148 % of normal
  Factor XI mRNA levels in the Liver: 24 % of normal
[2]; Colitis Study F, 50 mg/kg, compared to placebo
  body weight (in words): did not significantly affect body weight
[2]; DSS-treated mice, 50 mg/kg s.c. twice a week for 3 weeks, day 0
  Body weight (day 0): 28 grams
[2]; DSS-treated mice, 50 mg/kg s.c. twice a week for 3 weeks, day 7
  Body weight (day 7): 24.7 grams
[2]; DSS-treated mice, 50 mg/kg, Day 3
  Stool score: 0
[2]; DSS-treated mice, 50 mg/kg, Day 4
  Stool score: 0.25
[2]; DSS-treated mice, 50 mg/kg, Day 5
  Stool score: 1
[2]; DSS-treated mice, 50 mg/kg, Day 6
  Stool score: 1
[2]; DSS-treated mice, 50 mg/kg, Day 7
  Stool score: 1
[2]; [22]
  Colon length: 7.8 cm
  Colon weight: 339.3 mg
[3]; Colitis Study D
  CD40L levels (in words): decreased
[3]; 10 mpk
  CD40L levels in colon: 0.19 ng/mg protein
[3]; 20 mpk
  CD40L levels in colon: 0.26 ng/mg protein
[3]; 40 mpk
  CD40L levels in colon: 0.39 ng/mg protein
